Measured values taken from patent US20240148895A1, “ANTIBODY-DRUG CONJUGATE” (Eisai R&D Management Co., Ltd., priority 2022, published 2024).
pIC50: −log10 of the molar value.

Legend:
BRD4(BD1+BD2) protein = molecular target: T1, BRD4(BD1+BD2) protein (Homo sapiens, UniProt O60885); assay: BRD4 binding inhibition assay (TR-FRET); conditions: BRD4(BD1+BD2) TR-FRET Assay Kit, reaction 2 hours at room temperature; read-out: IC50 (concentration necessary for 50% inhibition of BRD4 binding activity)
T1 construct: 5 μL of BRD4(BD1+BD2) protein solution prepared to 3.6 ng/μL; purchased BPS Bioscience Inc. 32612
Protocol: This assay measures binding inhibition activity of the test substance on the bromodomain of BRD4 protein.
BRD4 binding inhibition activity assay was carried out using a BRD4(BD1+BD2)TR-FRET Assay Kit (BPS Bioscience Inc. Catalog #32612), according to the attached instructions. In a flat-bottom 384-well white plate (Greiner 781080) there was added 8 μL of Tb-labeled donor/dye-labeled acceptor solution diluted 160-fold with 1×BRD TR-FRET Assay Buffer1, with 5 μL of BET Bromodomain Ligand diluted 40-fold with 1×BRD TR-FRET Assay Buffer1 in the test substance measuring wells and the Positive Control wells, and 5 μL of Non-acetylated Ligand1 diluted 40-fold with 1×BRD TR-FRET Assay Buffer1 in the Negative Control wells. After adding 2 μL of test substance diluted with 1×BRD TR-FRET Assay Buffer1 to the test substance measuring wells, and 2 μL of Dimethyl Sulfoxide solution diluted 100-fold with 1×BRD TR-FRET Assay Buffer1 to the Positive Control wells and Negative Control wells, 5 μL of BRD4(BD1+BD2) protein solution prepared to 3.6 ng/μL with 1×BRD TR-FRET Assay Buffer1 was added and reaction was conducted for 2 hours at room temperature. The fluorescence intensity was measured at 620 nm and 665 nm with irradiation of 340 nm excitation light into each well, using an Envision™ (Perkin-Elmer). The ratio of fluorescence intensity at […] with respect to fluorescence intensity at 620 nm for each well was recorded as the TR-FRET ratio, and the TR-FRET ratio in the presence of the test substance was calculated with the Positive Control well value as 100%, subtracting the Negative Control well value. The concentration of test substance necessary for 50% inhibition of BRD4 binding activity (IC50) was calculated from the TR-FRET ratio, and shown in Table 1.

AsPC-1/Cas9 cell line = assay: AsPC-1/Cas9 growth inhibition assay; assay type: cell-based, human; conditions: Homo sapiens, ASPC1, 120 h, AsPC-1/Cas9 cells, 5 days culture, CellTiter Glo 2.0; read-out: Absolute IC50—Day 5 (nM) AsPC-1 Cas9
Protocol: The human pancreatic cancer cell line AsPC-1 (ATCC Number CRL1682) was infected with Edit-R Lentiviral hCMV-Blast-Cas9 Nuclease Particle (Dharmacon, VCAS10124) in the presence of 8 μg/ml of Hexadimethrine bromide (Sigma, H9268), and after 24 hours it was exposed to 10 μg/ml of Blastcidin S (Thermo, A11139) to remove the uninfected cells, thereby establishing an AsPC-1/Cas9 cell line. The cells were maintenance cultured in a 5% CO2 incubator (37° C.) using RPMI-1640 (FujiFilm-Wako Pure Chemical Industries) containing 10% fetal bovine serum (FBS: SIGMA 173012) and penicillin/streptomycin (FujiFilm-Wako Pure Chemical Industries) (hereunder referred to simply as “culture medium”). After adding 45 μL of AsPC-1/Cas9 cell suspension prepared to 2.0×10^4 cells/mL using culture medium into each well of a 384-well plate (Greiner 781091), the cells were cultured overnight in a 5% CO2 incubator (37° C.). On the following day, 5 μL of the test substance diluted with culture medium was added to each well, and culturing was continued for 5 days in a 5% CO2 incubator (37° C.). Next, 25 μL of CellTiter Glo™ 2.0 (Promega) was added to each well, and the plate contents were mixed for 5 minutes using a plate mixer. The plate was stationed for 10 minutes at room temperature while shielded from light, and then the luminous intensity was measured with an ENVISION™ (Perkin-Elmer). The luminescence value of the wells with addition of test substance was determined as a relative value, with 100% as the luminescence value of the wells with cells but without addition of the test substance, and 0% as the luminescence value of the wells without cells. A plot of test substance concentration against luminescence value % approximated a 4-parameter logistic curve, and the test substance concentration necessary for 50% inhibition of cell growth (Absolute IC50) was calculated, and is shown in Table 4.

[1] = molecular target: HiBiT tagged BRD4-BD1 protein in HEK293/LgBiT/hPGK/HiBiT-BRD4-BD1 cells (Homo sapiens, UniProt O60885); assay: BET BD1 domain degradation assay; assay type: cell-based; set-up: HiBit-linker-BRD4 BD1(1-209); host or cells: HEK293 (ATCC CRL-1573) stably transduced with LgBiT and HiBiT-BRD4-BD1; conditions: concentration for 50% reduction in HiBiT-BRD4-BD1 protein level, 3 hours, read-out: Absolute DC50—3 h (nM) HEK293_HiBiT-BRD4-BD1
Description: HEK293/LgBiT/hPGK/HiBiT-BRD4-BD1 cells were established by introducing LgBiT and HiBiT-BRD4-BD1 into the human fetus renal cell line HEK293 (ATCC Number CRL-1573). LgBiT was introduced using lentivirus vector LV[Exp]-Bsd-EFS>{LgBiT}, and HiBiT-BRD4-BD1 was introduced with lentivirus vector LV[Exp]-Puro-hPGK>{HiBit-linker-BRD4 BD1(1-209)}. The vector plasmids LV[Exp]-Bsd-EFS>{LgBiT} and LV[Exp]-Puro-hPGK>{HiBit-linker-BRD4_BD1(1-209)} were constructed by VectorBuilder Co. The lentivirus was produced using a Mission Lentivirus Packaging Mix (Sigma) according to the manufacturer's protocol. Viral infection and drug selection of infected cells were carried out by the following published method (Akagi T. et. al, PNAS 2003; 100:13567-72). The cells were maintenance cultured in a 5% CO2 incubator (37° C.), using culture medium. A 45 μL portion of cell suspension of HEK293/LgBiT/hPGK/HiBiT-BRD4-BD1 cells prepared to 6.7×10^4 cells/mL using culture medium was added to each well of a collagen I-coated 384-well plate (Falcon 356667), and the cells were cultured overnight in a 5% CO2 incubator (37° C.). On the following day, 5 μL of test substance diluted with RPMI-1640 (FujiFilm-Wako Pure Chemical Industries) containing 10% fetal bovine serum (FBS: SIGMA 173012) and penicillin/streptomycin (FujiFilm-Wako Pure Chemical Industries) was added to each well, and culturing was continued for 3 hours in a 5% CO2 incubator (37° C.). The luminous intensity was measured using a Nono-Glo HiBiT Lytic Detection System (Promega), and the intracellular HiBiT tagged BRD4-BD1 protein level was calculated. After culturing, 25 μL of measuring reagent was added to each well and the plate contents were mixed for 5 minutes using a plate mixer. The plate was stationed for 10 minutes at room temperature while shielded from light, and then the luminous intensity was measured with an ENVISION′ (Perkin-Elmer). The luminescence value of the wells with addition of test substance was determined as a relative value, with 100% as the luminescence value of the wells with cells but without addition of the test substance, and 0% as the luminescence value of the wells without cells. A plot of test substance concentration against luminescence value % approximated a 4-parameter logistic curve, and the test substance concentration necessary for 50% reduction in protein level (Absolute DC50) was calculated and is shown in Table 4.

SMILES | pIC50 (BRD4(BD1+BD2) protein) | IC50 (AsPC-1/Cas9 cell line) [nM] | DC50 [1] [nM]
CCCC(CO)(CCC)c1nc(N2CCC(CN3CCNCC3)CC2)nc2ccc(-c3cn(C)c(=O)cc3OC)cc12 [Example 32, 5-(4-(4-(Hydroxymethyl)heptan-4-yl)-2-(4-(piperazin-1-ylmethyl)piperidin-1-yl)quinazolin-6-yl)-4-methoxy-1-methylpyridin-2(1H)-one] | 7.09 |  | 
Cc1cc(-c2ccc3nc(N)nc(C(CO)(OC4CC4)c4ccccc4)c3c2)cn(C)c1=O (stereo not shown) [Example 2, 5-(2-Amino-4-(1-cyclopropoxy-2-hydroxy-1-phenylethyl)quinazolin-6-yl)-1,3-dimethylpyridin-2(1H)-one] | 7.59 |  | 
COc1ccc(C(=O)NC2(C)CCN(C3CCN(c4nc(C(CO)(OC5CC5)c5cccc6ccccc56)c5cc(-c6cn(C)c(=O)c7[nH]ccc67)ccc5n4)CC3)CC2)cc1N1CCC(=O)NC1=O (stereo not shown) [Example 128, N-(1′-(4-(1-Cyclopropoxy-2-hydroxy-1-(naphthalen-1-yl)ethyl)-6-(6-methyl-7-oxo-6,7-dihydro-1H-pyrrolo[2,3-c]pyridin-4-yl)quinazolin-2-yl)-4-methyl-[1,4′-bipiperidin]-4-yl)-3-(2,4-dioxotetrahydropyrimidine-1(2H)-yl)-4-methoxybenzamide] |  | 0.32 | 0.25
COc1ccc(C(=O)NC2(C)CCN(C3CCN(c4nc(C(CO)(CC(C)C)c5cccs5)c5cc(-c6cn(C)c(=O)c7[nH]ccc67)ccc5n4)CC3)CC2)cc1N1CCC(=O)NC1=O (stereo not shown) [Example 125, 3-(2,4-Dioxotetrahydropyrimidine-1(2H)-yl)-N-(1′-(4-(1-hydroxy-4-methyl-2-(thiophen-2-yl)pentan-2-yl)-6-(6-methyl-7-oxo-6,7-dihydro-1H-pyrrolo[2,3-c]pyridin-4-yl)quinazolin-2-yl)-4-methyl-[1,4′-bipiperidin]-4-yl)-4-methoxybenzamide] |  | 0.2 | 0.19
COc1ccc(C(=O)NC2(C)CCN(C3CCN(c4nc([C@@](CO)(OC5CC5)c5ccccc5)c5cc(-c6cn(C)c(=O)c7[nH]ccc67)ccc5n4)CC3)CC2)cc1N1CCC(=O)NC1=O (stereo in doubt) [Example 104, N-(1′-(4-(1-Cyclopropoxy-2-hydroxy-1-phenylethyl)-6-(6-methyl-7-oxo-6,7-dihydro-1H-pyrrolo[2,3-c]pyridin-4-yl)quinazolin-2-yl)-4-methyl-[1,4′-bipiperidin]-4-yl)-3-(2,4-dioxotetrahydropyrimidine-1(2H)-yl)-4-methoxybenzamide] |  | 0.073 | 0.15
CNCCN(C)C(=O)OCC(OC1CC1)(c1ccccc1)c1nc(N2CCC(CN3C[C@@H](C)N(C(=O)c4ccc(OC)c(N5CCC(=O)NC5=O)c4)C[C@@H]3C)CC2)nc2ccc(-c3cn(C)c(=O)c4[nH]ccc34)cc12 (stereo partly drawn) [Example 119, 2-Cyclopropoxy-2-(2-(4-(((2S,5R)-4-(3-(2,4-dioxotetrahydropyrimidine-1(2H)-yl)-4-methoxybenzoyl)-2,5-dimethylpiperazin-1-yl)methyl)piperidin-1-yl)-6-(6-methyl-7-oxo-6,7-dihydro-1H-pyrrolo[2,3-c]pyridin-4-yl)quinazolin-4-yl)-2-phenylethyl methyl(2-(methylamino)ethyl)carbamate] |  | 0.23 | 1.6
COc1ccc(C(=O)NC2(C)CCN(CC3CCN(c4nc(C(CO)(OC5CC5)c5ccccc5)c5cc(-c6cn(C)c(=O)c7occc67)ccc5n4)CC3)CC2)cc1N1CCC(=O)NC1=O (stereo not shown) [Example 108, N-(1-((1-(4-(1-Cyclopropoxy-2-hydroxy-1-phenylethyl)-6-(6-methyl-7-oxo-6,7-dihydrofuro[2,3-c]pyridin-4-yl)quinazolin-2-yl)piperidin-4-yl)methyl)-4-methylpiperidin-4-yl)-3-(2,4-dioxotetrahydropyrimidine-1(2H)-yl)-4-methoxybenzamide] |  | 0.23 | 0.21
COc1ccc(-n2cc(CN3CCN(CC4CCN(c5nc(C(CO)(OC6CC6)c6ccccc6)c6cc(-c7cc(C)c(=O)n(C)c7)ccc6n5)CC4)CC3)nn2)cc1N1CCC(=O)NC1=O (stereo not shown) [Example 130, 1-(5-(4-((4-((1-(4-(1-Cyclopropoxy-2-hydroxy-1-phenylethyl)-6-(1,5-dimethyl-6-oxo-1,6-dihydropyridin-3-yl)quinazolin-2-yl)piperidin-4-yl)methyl)piperazin-1-yl)methyl)-1H-1,2,3-triazol-1-yl)-2-methoxyphenyl)-dihydropyrimidine-2,4(1H,3H)-dione] |  | 0.98 | 0.19
COc1ccc(C#CCNC2(C)CCN(C3CCN(c4nc([C@@](CO)(OC5CC5)c5ccccc5)c5cc(-c6cn(C)c(=O)c7[nH]ccc67)ccc5n4)CC3)CC2)cc1N1CCC(=O)N(CNC(=O)[C@H](CC(=O)O)NC(C)=O)C1=O [Example 138, (S)-3-Acetamide-4-(((3-(5-(3-((1′-(4-((S)-1-cyclopropoxy-2-hydroxy-1-phenylethyl)-6-(6-methyl-7-oxo-6,7-dihydro-1H-pyrrolo[2,3-c]pyridin-4-yl)quinazolin-2-yl)-4-methyl-[1,4′-bipiperidin]-4-yl)amino)prop-1-yn-1-yl)-2-methoxyphenyl)-2,6-dioxotetrahydropyrimidine-1(2H)-yl)methyl)amino)-4-oxobutanoic acid] |  | 41 | > 100
